What was measured:
[1] = target: T1, orexin-1 receptor (OX1R) (Homo sapiens, UniProt O43613); assay: radioligand binding assay, membranes from CHO cells expressing OX1; conditions: CHO cell membranes
T1 construct: expressed in transfected cells; host or cells: CHO cells (membranes)
T1 sequence (O43613 1-425): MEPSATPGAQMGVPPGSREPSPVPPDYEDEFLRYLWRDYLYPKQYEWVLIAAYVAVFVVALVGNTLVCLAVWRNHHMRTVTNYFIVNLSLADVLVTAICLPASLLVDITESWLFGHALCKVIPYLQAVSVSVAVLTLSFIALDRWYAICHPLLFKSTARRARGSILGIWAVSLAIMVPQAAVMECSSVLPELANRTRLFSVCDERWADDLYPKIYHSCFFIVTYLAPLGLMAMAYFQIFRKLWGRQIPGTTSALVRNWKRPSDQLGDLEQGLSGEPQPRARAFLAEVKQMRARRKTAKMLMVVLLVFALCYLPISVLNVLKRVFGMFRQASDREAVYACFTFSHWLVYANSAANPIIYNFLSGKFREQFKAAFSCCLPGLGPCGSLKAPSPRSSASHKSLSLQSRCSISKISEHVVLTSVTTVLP
Method: (§1) The utility of the compounds in accordance with the present invention as orexin receptor OX1R and/or OX2R antagonists may be readily determined without undue experimentation by methodology well known in the art, including the “FLIPR Ca^2+ Flux Assay” (Okumura et al., Biochem. Biophys. Res. Comm. 280:976-981, 2001). In a typical experiment the OX1 and OX2 receptor antagonistic activity of the compounds of the present invention was determined in accordance with the following experimental method. For intracellular calcium measurements, Chinese hamster ovary (CHO) cells expressing the rat OX1 receptor or the human OX2 receptor, are grown in Iscove's modified DMEM containing 2 mM L-glutamine, […], 1% hypoxanthine-thymidine supplement, 100 U/ml penicillin, 100 ug/ml streptomycin and 10% heat-inactivated fetal calf serum (FCS). The cells are seeded at 20,000 cells/well into Becton-Dickinson black 384-well clear bottom sterile plates coated with poly-D-lysine. All reagents were from GIBCO-Invitrogen Corp. The seeded plates are incubated overnight at 37° C. and 5% CO2. Ala-6,12 human orexin-A as the agonist is prepared as a 1 mM stock solution in 1% bovine serum albumin (BSA) and diluted in assay buffer (HBSS containing 20 mM HEPES, 0.1% BSA and 2.5 mM probenecid, pH7.4) for use in the assay at a final concentration of 70 pM. Test compounds are prepared as 10 mM stock solution in DMSO, then diluted in 384-well plates, first in DMSO, then assay buffer. On the day of the assay, cells are washed 3 times with 100 ul assay buffer and then incubated for 60 min (37° C., 5% CO2) in 60 ul assay buffer containing 1 uM Fluo-4AM ester, 0.02% pluronic acid, and 1% BSA. The dye loading solution is then aspirated and cells are washed 3 times with 100 ul assay buffer. 30 ul of that same buffer is left in each well. Within the Fluorescent Imaging Plate Reader (FLIPR, Molecular Devices), test compounds are added to the plate in a volume of 25 ul, incubated for 5 min and finally 25 ul of agonist is added. Fluorescence is measured for each well at 1 second intervals for 5 minutes and the height of each fluorescence peak is compared to the height of the fluorescence peak induced by 70 pM Ala-6,12 orexin-A with buffer in place of antagonist. […] Alternatively, compound potency can be assessed by a radioligand binding assay (described in Bergman et. al. Bioorg. Med. Chem. Lett. 2008, 18, 1425-1430) in which the inhibition constant (Ki) is determined in membranes prepared from CHO cells expressing either the orexin-1 (OX1) or orexin-2 (OX2) receptor. The intrinsic orexin receptor antagonist activity of a compound which may be used in the present invention may be determined by these assays.

[2] = target: T2, orexin-2 receptor (OX2R) (Homo sapiens, UniProt O43614); assay: radioligand binding assay, membranes from CHO cells expressing OX2; conditions: CHO cell membranes
T2 construct: expressed in transfected cells; host or cells: CHO cells (membranes)
T2 sequence (O43614 1-444): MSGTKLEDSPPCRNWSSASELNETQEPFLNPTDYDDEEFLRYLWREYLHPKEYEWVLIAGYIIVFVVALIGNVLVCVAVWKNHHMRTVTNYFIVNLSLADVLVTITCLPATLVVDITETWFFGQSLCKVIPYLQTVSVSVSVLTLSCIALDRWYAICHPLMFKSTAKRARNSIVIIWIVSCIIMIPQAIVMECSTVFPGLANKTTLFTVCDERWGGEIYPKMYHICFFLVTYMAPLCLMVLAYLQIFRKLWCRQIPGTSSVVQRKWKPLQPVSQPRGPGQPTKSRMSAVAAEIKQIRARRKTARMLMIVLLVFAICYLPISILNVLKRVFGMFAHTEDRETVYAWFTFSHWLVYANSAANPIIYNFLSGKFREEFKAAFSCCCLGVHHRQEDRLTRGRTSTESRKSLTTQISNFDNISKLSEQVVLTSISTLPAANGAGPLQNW
Method: as §1

Ki [1]	Ki [2]	Compound
0.86 nM	0.36 nM	Cc1ccc(-n2nccn2)c(C(=O)N2C[C@H](COc3cccc(F)c3)CC[C@H]2C)c1 [A-9, (2R,5R)-5-[(3-fluorophenoxy)methyl]-2-methyl-1-[5-methyl-2-(2H-1,2,3-triazol-2-yl)benzoyl]piperidine]
2.7 nM	0.2 nM	Cc1ccc(-n2nccn2)c(C(=O)N2C[C@H](COc3nccc4ccccc34)CC[C@H]2C)c1 [A-15, 1-({(3R,6R)-6-methyl-1-[5-methyl-2-(2H-1,2,3-triazol-2-yl)benzoyl]piperidine-3-yl}methoxy)isoquinoline]
4.5 nM	4.6 nM	Cc1ccc(-n2nccn2)c(C(=O)N2C[C@H](Cc3nc4ccccc4n3C)CC[C@H]2C)c1 [C-2, 1-methyl-2-({(3S,6R)-6-methyl-1-[5-methyl-2-(2H-1,2,3-triazol-2-yl)benzoyl]piperidin-3-yl}methyl)-1H-benzimidazole]
95 nM	6.9 nM	Cc1ccc(-n2nccn2)c(C(=O)N2C[C@H](CC(=O)N3CCCc4ccccc43)CC[C@H]2C)c1 [C-6, 1-({(3S,6R)-6-methyl-1-[5-methyl-2-(2H-1,2,3-triazol-2-yl)benzoyl]piperidin-3-yl}acetyl)-1,2,3,4-tetrahydroquinoline]

— patent US8669272B2, “2,5-disubstituted piperidine orexin receptor antagonists” (Merck Sharp & Dohme Corp., priority 2008, dated 2014)
